Source: ChEMBL document CHEMBL1134867, “Synthesis and initial structure-activity relationships of a novel series of imidazolo[1,2-a]pyrimid-5-ones as potent GnRH receptor antagonists” (Bioorg Med Chem Lett, 2002)

Biological target: T1, Gonadotropin-releasing hormone receptor (Rattus norvegicus, UniProt P30969)
T1 sequence (P30969 whole entry): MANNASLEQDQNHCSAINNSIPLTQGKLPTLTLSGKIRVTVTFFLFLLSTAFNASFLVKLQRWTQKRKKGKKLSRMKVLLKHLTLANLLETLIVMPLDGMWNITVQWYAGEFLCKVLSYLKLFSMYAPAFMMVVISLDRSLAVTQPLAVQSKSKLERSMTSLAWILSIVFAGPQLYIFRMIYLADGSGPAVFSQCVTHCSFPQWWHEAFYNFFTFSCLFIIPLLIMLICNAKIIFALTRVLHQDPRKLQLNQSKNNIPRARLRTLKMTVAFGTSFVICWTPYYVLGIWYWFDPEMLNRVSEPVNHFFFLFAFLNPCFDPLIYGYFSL
Assay: Ability of compound to inhibit [125I-Tyr5,DLeu6,NMeLeu7,Pro9-NEt]GnRH agonist binding to the rat Gonadotropin-releasing hormone receptor was evaluated
Conditions: not given

Row | Ki | IC50 | Compound
1 | 0.631 nM | – | CC[C@H]1OC(=O)[C@H](C)[C@@H](OC(=O)N2C(=O)OC[C@@H]2C)[C@H](C)[C@@H](O[C@@H]2O[C@H](C)C[C@H](N(C)CC3CC3)[C@H]2O)[C@@](C)(OC)C[C@@H](C)C(=O)[C@H](C)[C@H]2N(CCc3ccc(Cl)c(Cl)c3)C(=O)O[C@]12C
2 | – | 4 nM | Cc1cc(-c2c(O)nc3cc(Cl)c(C(=O)Nc4ncccn4)cc3c2OCC[C@@H]2CCN2)cc(C)c1C

Biological target: T2, Gonadotropin-releasing hormone receptor (Homo sapiens, UniProt P30968)
T2 sequence (P30968 whole entry): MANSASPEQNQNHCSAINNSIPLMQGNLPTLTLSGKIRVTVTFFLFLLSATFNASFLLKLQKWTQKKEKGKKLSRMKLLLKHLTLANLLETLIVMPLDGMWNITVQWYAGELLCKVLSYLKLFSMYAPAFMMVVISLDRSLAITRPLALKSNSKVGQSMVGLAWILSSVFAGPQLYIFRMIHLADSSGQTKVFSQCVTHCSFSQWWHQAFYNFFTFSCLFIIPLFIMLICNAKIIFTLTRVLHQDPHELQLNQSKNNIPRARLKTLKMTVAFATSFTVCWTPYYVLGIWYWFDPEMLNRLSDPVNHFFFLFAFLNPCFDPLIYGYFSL
Assay: Ability of compound to inhibit [125I-Tyr5,DLeu6,NMeLeu7,Pro9-NEt]GnRH agonist binding to the cloned human Gonadotropin-releasing hormone receptor was evaluated
Conditions: not given

Row | Ki | IC50 | Compound
3 | 2 nM | – | CC[C@H]1OC(=O)[C@H](C)[C@@H](OC(=O)N2C(=O)OC[C@@H]2C)[C@H](C)[C@@H](O[C@@H]2O[C@H](C)C[C@H](N(C)CC3CC3)[C@H]2O)[C@@](C)(OC)C[C@@H](C)C(=O)[C@H](C)[C@H]2N(CCc3ccc(Cl)c(Cl)c3)C(=O)O[C@]12C
4 | – | 0.44 nM | Cc1cc(-c2c(O)nc3cc(Cl)c(C(=O)Nc4ncccn4)cc3c2OCC[C@@H]2CCN2)cc(C)c1C

Tested on: not listed separately
Assay: Oral bioavailability in rat
Type: ADME, organism-based
Conditions: in vivo

Row | bioavailability | Compound
5 | 15.2% | CC[C@H]1OC(=O)[C@H](C)[C@@H](OC(=O)N2C(=O)OC[C@@H]2C)[C@H](C)[C@@H](O[C@@H]2O[C@H](C)C[C@H](N(C)CC3CC3)[C@H]2O)[C@@](C)(OC)C[C@@H](C)C(=O)[C@H](C)[C@H]2N(CCc3ccc(Cl)c(Cl)c3)C(=O)O[C@]12C

Biological target: T2, Gonadotropin-releasing hormone receptor
Assay: Ability to inhibit [125I-Tyr5,DLeu6,NMeLeu7,Pro9-NEt]GnRH agonist binding to the cloned human Gonadotropin-releasing hormone receptor was evaluated
Conditions: not given

Row | Ki | Compound
6 | 52 nM | CCCC(=O)Nc1ccc(-c2nc3n(Cc4ccccc4F)cc(C(=O)OC(CC)CC)c(=O)n3c2CN(C)Cc2cccnc2)cc1
7 | 950 nM | CCOC(=O)c1cn(Cc2ccccc2F)c2nc(-c3ccc(OC)cc3)c(CN(C)Cc3ccccc3)n2c1=O
8 | 28000 nM | CCCC(=O)Nc1ccc(-c2cn3c(=O)c(C(=O)OC(CC)CC)cn(Cc4ccccc4F)c3n2)cc1
9 | 290 nM | CCCC(=O)Nc1ccc(-c2nc3n(Cc4ccccc4F)cc(C(=O)OC(CC)CC)c(=O)n3c2CN2CCc3ccccc3C2)cc1
10 | 30000 nM | CCCC(=O)Nc1ccc(-c2cn3c(=O)c(C(=O)OCC)cn(Cc4ccccc4F)c3n2)cc1
11 | 300 nM | CCCC(=O)Nc1ccc(-c2nc3n(Cc4ccccc4F)cc(C(=O)OC(CC)CC)c(=O)n3c2CN(C)CC#N)cc1
12 | 12 nM | CCCC(=O)Nc1ccc(-c2nc3n(Cc4ccccc4F)cc(C(=O)OCC)c(=O)n3c2CN(C)CCc2ccccn2)cc1
13 | 29 nM | CCCC(=O)Nc1ccc(-c2nc3n(Cc4ccccc4F)cc(C(=O)OC(CC)CC)c(=O)n3c2CN(C)Cc2ccco2)cc1
14 | 80 nM | CCCC(=O)Nc1ccc(-c2nc3n(Cc4ccccc4F)cc(C(=O)OCC)c(=O)n3c2CN(C)Cc2ccccc2)cc1
15 | 14 nM | CCCC(=O)Nc1ccc(-c2nc3n(Cc4ccccc4F)cc(C(=O)OC(CC)CC)c(=O)n3c2CN(C)CCc2ccccc2)cc1
16 | 41 nM | CCC(CC)OC(=O)c1cn(Cc2ccccc2F)c2nc(-c3ccc(NC(=O)C(C)C)cc3)c(CN(C)Cc3ccccc3)n2c1=O
17 | 2200 nM | CCCC(=O)Nc1ccc(-c2nc3n(Cc4ccccc4F)cc(C(=O)OC(CC)CC)c(=O)n3c2CN2CCCC2)cc1
18 | 7.5 nM | CCCC(=O)Nc1ccc(-c2nc3n(Cc4ccccc4F)cc(C(=O)OC(CC)CC)c(=O)n3c2CN(C)CCc2ccccn2)cc1
19 | 230 nM | CCOC(=O)c1cn(Cc2ccccc2F)c2nc(-c3ccc(OC)cc3)c(CN(C)CCc3ccccn3)n2c1=O
20 | 36 nM | CCCC(=O)Nc1ccc(-c2nc3n(Cc4ccccc4F)cc(C(=O)OC(CC)CC)c(=O)n3c2CN(C)CCOC)cc1
